Experiments:
[1] = system: luciferase (Luc) mRNA; experiment: Luc expression (total flux) after intramuscular administration; format: in vivo, mice; conditions: for Total flux, 0.001 mpk Dose / Total flux, 0.01 mpk Dose: 6 hours after intramuscular administration, Luc mRNA and H10 mRNA; for AUC (p/s * h) / Lipid/MC3 AUC: Table 3H, Luc; for Novel lipid/MC3 expression ratio, 6 hr. time point, i.m. Luc: relative to MC3 formulation
Outline: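 Total-flux luciferase signal in mice after one intramuscular injection. Nanoparticle formulations contained modified Luc mRNA, either alone or co-dosed with H10 mRNA (e.g., 0.0005 or 0.005 mpk of each), giving 0.001 or 0.01 mpk.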

[2] = Apparent (surface) pKa of the LNP formulation (TNS assay); format: physicochemical
Outline: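 Fluorescence of TNS probe added to LNP samples (mRNA 0.04 mg/mL) was read across 21 buffers of pH about 3-12, triplicate per pH. The inflection point of the sigmoidal fluorescence-vs-pH curve, […], gives apparent pKa; method validated in 1× PBS and Tris/sucrose buffer.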

[3] = Particle size and polydispersity index of nanoparticle compositions (Zetasizer Nano ZS); format: physicochemical
Outline: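 Values are size and PDI readings from a Zetasizer Nano ZS. Measurements are taken in 1×PBS; zeta potential, by contrast, uses 15 mM PBS.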

[4] = system: luciferase (Luc) mRNA; experiment: Luc expression in liver, lung, spleen and femur 6 hours after intravenous administration; format: in vivo; conditions: mice, intravenous, 0.5 mpk
Outline: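 LNP-formulated mRNA given IV to mice (n=3) at 0.5 mpk; at 6 h, bioluminescence imaged ex vivo 15 min after IP D-luciferin (15 mg/mL, 200 μL), organs imaged within 25 min. Values are total flux by region of interest.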

[5] = system: IL-6, IP-10; experiment: Cytokine induction in mice upon intravenous administration; format: in vivo; set-up: Cytokine induction IL-6 / Cytokine induction IP-10: unit not given here; conditions: intravenous, 0.5 mpk, 6 hours
Outline: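 IL-6 and IP-10 concentrations determined 6 hours after a single intravenous 0.5 mpk dose of lipid nanoparticle formulation in mice, with MC3 and PBS as comparators.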

[6] = Table 1A, lipid:DSPC:cholesterol:PEG-DMG 50:10:38.5:1.5 mol %
[7] = Table 1E, compositions for subcutaneous administration
[8] = Table 1C, compositions for subcutaneous administration
[9] = lipid nanoparticle, ±SD within one assay run (Table 37)
[10] = Table 1D, for subcutaneous administration, # formulated with hEPO mRNA

| Structure (SMILES) | Total flux, 0.001 mpk Dose ([1]; 0.001 mpk) | Total flux, 0.01 mpk Dose ([1]; 0.01 mpk) | pKa ([2]; Table 1A) | PDI ([3]; Table 1A) | Size (nm) [3, 6] | Total Flux Femur [4] | Total Flux Liver [4] | Total Flux Lung [4] | Total Flux Spleen [4] | Cytokine induction IL-6 [5] | Cytokine induction IP-10 [5] | pKa [2, 9] | PDI (Polydispersity index) [3, 9] | also measured |
| --- | --- | --- | --- | --- | --- | --- | --- | --- | --- | --- | --- | --- | --- | --- |
| CCCCCCCCCOC(=O)CCCCCCCN(CCO)CCCCCCCCCC(=O)OC(CCCCCCCC)CCCCCCCC [Compound 23, Heptadecan-9-yl 10-((2-hydroxyethyl)(8-(nonyloxy)-8-oxooctyl)amino) decanoate] | 8.27E+06 p/s | 2.20E+06 p/s | 6.84 | 0.09 | 104.5 nm | 1.19E+06 | 2.92E+08 | 1.82E+06 | 3.08E+07 | 94.00 | 1015.95 |  |  | App. pKa ([2]; Table 3F): 6.88; PDI [3, 7]: 0.13; Size (nm) [3, 7]: 70.5 nm |
| CCCCCC/C=C\COC(=O)CCCCCCCN(CCO)CCCCCCCC(=O)OC(CCCCCCCC)CCCCCCCC [Compound 24, Heptadecan-9-yl (Z)-8_((2-hydroxyethyl) (8-(non-2-en-1-yloxy)-8-oxooctyl)amino)octanoate] | 3.78E+06 p/s | 3.97E+07 p/s | 6.71 | 0.13 | 99.5 nm | 4.54E+06 | 4.19E+09 | 1.71E+07 | 8.78E+07 | 163.53 | 1172.93 |  |  | PDI [3, 8]: 0.17; Size (nm) [3, 8]: 88.5 nm |
| CCCCCCCCC(CCCCCCCC)OC(=O)CCCCCCCN(CCO)CCCCCCCC(=O)OC(CCCCCCCC)CCCCCCCC [Compound 29, Di(heptadecan-9-yl) 8,8′-((2-hydroxyethyl)azanediyl)dioctanoate] | 7.64E+05 p/s | 1.12E+07 p/s | 6.00 | 0.11 | 66.8 nm | 9.56E+05 | 5.20E+08 | 9.83E+05 | 5.99E+06 | 69.54 | 1362.81 | 6.00 ± 0.24 | 0.11 ± 0.03 | Fold increase in Luc expression relative to MC3, Intramuscular (0.001 mpk dose) ([1]; intramuscular, 0.001 mpk): 0.11; Fold increase in Luc expression relative to MC3, Intramuscular (0.01 mpk dose) ([1]; intramuscular, 0.01 mpk): 0.25; surface pKa ([2]; LNP, Example 26): 6.00; pKa ([2]; Table 6): 6.00; Size [3, 9]: 66.8 ± 1.1 nm |
| CCCCCCCCCOC(=O)CCCCCCCN(CCO)CCCCCCCC(=O)N(CCCCCCCC)CCCCCCCC [Compound 144, Nonyl 8-((8-(dioctylamino)-8-oxooctyl)(2-hydroxyethyl)amino)octanoate] | 2.72E+06 p/s | 2.18E+07 p/s | 7.09 | 0.22 | 135.9 nm | 2.44E+06 | 3.75E+08 | 4.81E+06 | 5.11E+07 | 319.46 | 4220.55 |  |  |  |
| CCCCC/C=C\C/C=C\CCCCCCCCN(CCO)CCCCCCCC(=O)OCCCCCCCCC [Compound 136, Nonyl 8-((2-hydroxyethyl)((9Z,12Z)-octadeca-9,12-dien-1-yl)amino)octanoate] |  |  | 6.95 | 0.5 | 140.4 nm | 6.60E+05 | 1.34E+08 | 8.91E+05 | 2.77E+07 | 28.69 | 887.91 | 6.95 ± 0.13 | 0.11 ± 0.05 |  |
| CCCCC/C=C\C/C=C\CCCCCCCCN(CCO)CCCCCCCC(=O)OC(CCCCCCCC)CCCCCCCC [Compound 6, Heptadecan-9-yl 8-((2-hydroxyethyl)((9Z,12Z)-octadeca-9,12-dien-1-yl)amino)octanoate] |  |  | 6.32 | 0.066 | 73.1 nm | 2.15E+06 | 1.09E+09 | 4.30E+06 | 3.03E+07 | 136.18 | 316.01 | 6.32 ± 0.05 | 0.07 ± 0.05 | PDI ([3]; lipid:DSPC:Chol:PEG-DMG (50:10:38.5:1.5), hEPO mRNA): 0.082 |
| CCCCCCCCC(CC)OC(=O)CCCCCCCN(CCO)CCCCCCCC(=O)OC(CCCCCCCC)CCCCCCCC (centres unmarked) [Compound 49, heptadecan-9-yl 8-((2-hydroxyethyl)(8-oxo-8-(undecan-3-yloxy)octyl)amino)octanoate] |  |  | 6.52 | 0.14 | 88 nm |  | 5.68E+09 | 2.52E+07 | 1.87E+08 |  |  |  |  | AUC (p/s * h) ([1]; intramuscular): 7.54E+09 p/s * h; Lipid/MC3 AUC ([1]; intramuscular): 12.82; Novel lipid/MC3 expression ratio, 6 hr. time point, i.m. Luc ([1]; intramuscular): 12.99; PDI [3, 10]: 0.09; Size (nm) [3, 10]: 74.0 nm |
| CCCC/C=C\CCC(CC/C=C\CCCC)OC(=O)CCCCCCCN(CCO)CCCCCC(=O)OCCCCCCCCCCC [Compound 61, (5Z,12Z)-heptadeca-5,12-dien-9-yl 8-((2-hydroxyethyl)(6-oxo-6-(undecyloxy)hexyl)amino)octanoate] |  |  | 6.70 | 0.15 | 82.1 nm |  | 6.37E+08 | 3.56E+06 | 1.61E+07 |  |  |  |  | AUC (p/s * h) ([1]; intramuscular): 2.30E+09 p/s * h; Lipid/MC3 AUC ([1]; intramuscular): 3.91; Novel lipid/MC3 expression ratio, 6 hr. time point, i.m. Luc ([1]; intramuscular): 3.51; PDI [3, 7]: 0.08; Size (nm) [3, 7]: 80.0 nm |

— patent US12263248B2, “Compounds and compositions for intracellular delivery of therapeutic agents” (ModernaTX, Inc., priority 2018, dated 2025)
